Experiments:
SUM159 cells [1] = test: CDCFH2 / CDCF probe labeling (intracellular hydroperoxides), SUM159; format: cell-based, human; conditions: oxidation-sensitive probe
Description: FIGS. 5A-5D: CDCFH2 oxidation sensitive and CDCF oxidation insensitive probe labeling of BSO, DTPP, and AUR exposed SUM159 and HMECs cells. Asynchronously growing cultures of SUM159 (Panels A, B) and HMECs (Panes C, D) were plated and treated as described in FIG. 1. Monolayer cultures were harvested and trypsinized, washed once with PBS then labeled in PBS with either CDCFH2 (Panesl A, C) or CDCF (Panels B, D)(10 μg/mL, in 0.1% DMSO 15 minutes) at 37° C. Mean fluorescence intensity (MFI) of 10,000 cells was analyzed by flow cytometry. Samples were assayed in triplicate; Mean±1 SEM of 3 separate experiments containing 3 treatment dishes per group (n=9), *p<0.001 as compared to Control.
FIG. 9: Catalase inhibitable CDCFH2 oxidation in BSO, DTPP, and AUR exposed SUM159 cells. […] Mean fluorescence intensity (MFI) of 10,000 cells was analyzed by flow cytometry. […]
Measurement of Intracellular Hydroperoxides: Steady-state levels of hydroperoxides were estimated using the oxidation sensitive {5-(and-6)-carboxy-2′,7′-dichlorodihydrofluorescein diacetate, (CDCFH2)} and oxidation-insensitive {5-(and-6)-carboxy-2′,7′-dichlorofluorescein diacetate, (CDCF)} fluorescent dyes purchased from Molecular Probes. […] Samples were analyzed using a FACScan flowcytometer (Becton Dickinson Immuno-cytometry System, INC., Mountain View, Calif.) (excitation 488 nm, emission 530 nm band-pass filter). […]

SUM159 cells [2] = test: DHE oxidation (intracellular superoxide); format: cell-based, human
Description: FIG. 10: DHE oxidation of BSO,DTPP and AUR exposed SUM159 cells. Asynchronously growing cultures of SUM159 were plated and treated as described in FIG. 1. Monolayer cultures were harvested and trypsinized, washed once with PBS and labeled 40 minutes with 5 μM DHE (in 0.1% DMSO) in PBS containing 5 mM pyruvate at 37° C. Each sample was then analyzed for the Mean fluorescence Intensity (MFI) of 10,000 cells by flow cytometry. Samples were assayed in triplicate; mean±1 SD of 2 experiment containing treatment dishes per group (n=6). *p<0.001 as compared to Control.
Estimation of intracellular superoxide levels using Dihydroethidium (DHE) oxidation: Steady-state levels of superoxide were estimated using the fluorescent dyes, dihydroethidium (DHE) purchased from Molecular Probes (Eugene, Oreg.). Cells were plated and treated for as described earlier. On day 6, the cells were trypsinized and washed with 5 mM/L pyruvate containing PBS once then labeled with DHE ([…], in 0.1% DMSO, 40 min) at 37° C. After labeling, cells were kept on ice. Samples were analyzed using a FACScan flowcytometer (Becton Dickinson Immunocytometry System, INC., Mountain View, Calif.) (excitation 488 nm, emission 585 nm band-pass filter). The mean fluorescence intensity (MFI) of 10,000 cells was analyzed in each sample and corrected for autofluorescence from unlabeled cells. The MFI data was normalized to control levels.

A375 melanoma cells = test: MTT survival fraction analysis, A375; format: cell-based

With CCCCCCCCCC[P+](c1ccccc1)(c1ccccc1)c1ccccc1 [DTPP, Decyl-Triphenylphosphonium] the “increase in CDCFH2 oxidation compared to control” value (SUM159 cells [1]) was 2 fold, the “increase of DHE oxidation” value (SUM159 cells [2]) was 1.5 fold and the “cytotoxicity in the absence of BSO, in words” value (A375 melanoma cells) was “intermediate cytotoxicity”.

— patent US9801922B2, “Compositions and methods of treating cancer” (UNIVERSITY OF IOWA RESEARCH FOUNDATION, priority 2011, dated 2017)
